From patent US8410064B2, “Classical cannabinoid metabolites and methods of use thereof” (priority 2009, dated 2013) come the findings set out here.

Series [1] deals with T1, recombinant human UGT2B7 (Homo sapiens, UniProt P16662).
T1 sequence (P16662 24-529): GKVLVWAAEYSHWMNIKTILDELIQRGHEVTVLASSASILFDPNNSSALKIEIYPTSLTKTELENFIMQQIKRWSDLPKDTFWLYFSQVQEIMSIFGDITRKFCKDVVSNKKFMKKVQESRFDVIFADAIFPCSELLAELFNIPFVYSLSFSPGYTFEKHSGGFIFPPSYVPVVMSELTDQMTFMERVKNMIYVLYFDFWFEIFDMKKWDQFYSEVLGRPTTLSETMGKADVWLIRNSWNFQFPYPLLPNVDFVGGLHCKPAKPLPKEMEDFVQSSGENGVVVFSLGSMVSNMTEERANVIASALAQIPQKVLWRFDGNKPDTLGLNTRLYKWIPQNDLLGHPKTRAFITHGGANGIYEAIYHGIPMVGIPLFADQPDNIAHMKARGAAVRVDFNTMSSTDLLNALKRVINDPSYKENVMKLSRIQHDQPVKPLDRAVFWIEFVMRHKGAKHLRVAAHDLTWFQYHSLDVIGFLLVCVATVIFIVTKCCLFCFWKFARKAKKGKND
As to the kind of experiment: Glucuronidation by recombinant UGT2B7 (activity screen). As to conditions: 750 μM substrate, UDP-GlcUA 4 mM, 90 min.

In series [2] the test system is human UGTs. As to the kind of experiment: Glucuronidation activity across the tested human recombinant UGTs. As to conditions: 12 human recombinant UGTs; 750 μM substrate, UDP-GlcUA 4 mM, 90 min.
In series [3] the test system is human UGTs. Kind of series: LC-MS/MS confirmation of glucuronidated products. Type of series: in vitro ADME. Particulars: recombinant protein, 750 μM substrate, UDP-glucuronic acid 4 mM, 180 min, negative ion mode. Here is the method: FIG. 3 depicts a series of graphs illustrating RP-HPLC chromatographs of glucuronidated-product ion experiments. Tracings represent organic-soluble metabolites generated during incubation of recombinant protein with UDP-glucuronic acid (4 mM) and 750 μM of each substrate (A) Δ^9-THC, (B) CBN, (C) 11-OH-THC, (D) CBD, and (E) COOH-THC. Each substrate was incubated individually for 180 min. Control reactions omitted the respective substrate. MS/MS data were obtained in negative ion mode, as described in the Examples.
Liquid chromatography-tandem mass spectrometry (LC-MS/MS) analyses for product confirmation were performed using an Agilent 1100 HPLC system (Santa Clara. Calif.) which was interfaced with an API 4000 triple quadrupole (MS/MS) mass spectrometer (Applied Biosystems. Foster City. Calif.). Instrument operation and data acquisition was controlled through the Analyst software package (Version 1.4.2, Applied Biosystems). The HPLC system consisted of an autosampler, a binary pump, and a column oven. […]
Trace amounts of glucuronidated product was detected for all the substrates, but in some cases, where kinetic information could not be obtained, the physiological significance remains to be determined. […] In particular, the presence of bis- and/or diglucuronidated products was not detected.

The subject of series [4] is human liver microsomes. As to the kind of experiment: Glucuronidation by human liver microsomes (activity screen). Particulars: human liver microsomes (HLM); 750 μM substrate, UDP-GlcUA 4 mM, 90 min.
Series [5] has as its target T2, recombinant human UGT1A9 (Homo sapiens, UniProt O60656).
T2 sequence (O60656 26-530): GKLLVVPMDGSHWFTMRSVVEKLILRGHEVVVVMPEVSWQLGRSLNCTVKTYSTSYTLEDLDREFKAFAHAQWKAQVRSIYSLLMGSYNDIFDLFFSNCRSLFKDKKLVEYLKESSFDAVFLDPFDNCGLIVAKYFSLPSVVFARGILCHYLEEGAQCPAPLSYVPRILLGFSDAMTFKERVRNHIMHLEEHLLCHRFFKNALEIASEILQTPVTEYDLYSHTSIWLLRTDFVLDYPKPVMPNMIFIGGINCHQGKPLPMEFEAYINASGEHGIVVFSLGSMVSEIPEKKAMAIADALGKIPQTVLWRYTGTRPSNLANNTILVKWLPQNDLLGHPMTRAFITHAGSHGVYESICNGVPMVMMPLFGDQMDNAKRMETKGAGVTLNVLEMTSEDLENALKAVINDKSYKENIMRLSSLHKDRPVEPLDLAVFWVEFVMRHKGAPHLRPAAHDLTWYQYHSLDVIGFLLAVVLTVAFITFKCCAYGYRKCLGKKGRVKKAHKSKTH
Kind of series: Glucuronidation by recombinant UGT1A9 (activity screen and steady-state kinetics). Particulars: 750 μM substrate, UDP-GlcUA 4 mM, 90 min.

Series [6] deals with T3, recombinant human UGT2B17 (Homo sapiens, UniProt O75795).
T3 sequence (O75795 24-530): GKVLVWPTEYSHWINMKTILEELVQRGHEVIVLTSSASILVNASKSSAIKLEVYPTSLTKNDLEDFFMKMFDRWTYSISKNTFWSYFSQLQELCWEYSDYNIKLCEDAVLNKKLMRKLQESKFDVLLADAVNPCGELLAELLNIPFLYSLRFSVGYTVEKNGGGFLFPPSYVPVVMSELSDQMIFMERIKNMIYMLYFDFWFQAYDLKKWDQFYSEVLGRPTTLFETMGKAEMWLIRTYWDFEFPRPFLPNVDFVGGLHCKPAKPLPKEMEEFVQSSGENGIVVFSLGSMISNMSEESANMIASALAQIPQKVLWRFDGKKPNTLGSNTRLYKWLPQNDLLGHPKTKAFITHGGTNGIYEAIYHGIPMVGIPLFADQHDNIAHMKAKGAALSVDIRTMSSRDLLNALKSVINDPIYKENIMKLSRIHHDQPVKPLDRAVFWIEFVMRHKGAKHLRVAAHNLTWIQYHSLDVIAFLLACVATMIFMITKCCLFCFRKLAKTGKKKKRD
As to the kind of experiment: Glucuronidation by recombinant UGT2B17 (activity screen). As to conditions: 750 μM substrate, UDP-GlcUA 4 mM, 90 min.

With `C=C(C)[C@@H]1CCC(C)=C[C@H]1c1c(O)cc(CCCCC)cc1O` [CBD, cannabidiol], the “glucuronidation activity (initial screen)” value in series [1], in series [4], in series [5] and in series [6] was “minimal amount of a glucuronidated CBD product” in each case. Besides, the “glucuronidation activity (initial screen), overall” value in series [2] is “limited”. Also, the “glucuronidated product detected by LC-MS/MS” value in series [3] is “confirming the glucuronide production”.

On to Δ^9-Tetrahydrocannabinol [(−)-Δ^9-THC], for which the “glucuronidated product detected by LC-MS/MS” value in series [3] was “confirming the glucuronide production”.
